According to publication PMC4305006 (Chemistry & biology, 2014):
Converted amounts (≈) assume the structure as drawn.

Assays:
Type in all cases: cell-based, Mycobacterium tuberculosis
[1] = tested on: Mtb H37Rv without supplemental biotin; settings: 90% inhibition, 14 days
[2] = tested on: Mtb BioA under-expression strain (BioA-UE); settings: 90% inhibition, biotin-free Sauton's medium, 14 days
[3] = tested on: Mtb H37Rv with 1 μM supplemental biotin

C=C(CCC(=O)O)c1nc2ccccc2s1 [Compound 13, 4-(benzothiazol-2-yl)pentenoic acid]
MIC90 WT -biotin [1]: 2.5 µM (≈ 0.583 µg/mL)
MIC90 BioA-UE [2]: 0.7 µM (≈ 0.163 µg/mL)
shift of MIC upon addition of biotin [3]: approximately 3 fold
MIC90 WT+biotin ([3]; 90% inhibition, Mtb H37Rv with 1 μM supplemental biotin, 14 days): 8.7 µM (≈ 2.03 µg/mL)
